Measurements as given in ChEMBL document CHEMBL2073812, “Functional analysis of candidate ABC transporter proteins for sitosterol transport” (Biochim Biophys Acta, 2002).

Legend:
[1] = target: T1, Broad substrate specificity ATP-binding cassette transporter ABCG2 (Mus musculus, UniProt Q7TMS5); experiment: TP_TRANSPORTER: Flow cytometry in lymphocytes from Mdr1a/b-/- mice; type: functional, cell-based; conditions: lymphocyte
T1 sequence (Q7TMS5 whole entry): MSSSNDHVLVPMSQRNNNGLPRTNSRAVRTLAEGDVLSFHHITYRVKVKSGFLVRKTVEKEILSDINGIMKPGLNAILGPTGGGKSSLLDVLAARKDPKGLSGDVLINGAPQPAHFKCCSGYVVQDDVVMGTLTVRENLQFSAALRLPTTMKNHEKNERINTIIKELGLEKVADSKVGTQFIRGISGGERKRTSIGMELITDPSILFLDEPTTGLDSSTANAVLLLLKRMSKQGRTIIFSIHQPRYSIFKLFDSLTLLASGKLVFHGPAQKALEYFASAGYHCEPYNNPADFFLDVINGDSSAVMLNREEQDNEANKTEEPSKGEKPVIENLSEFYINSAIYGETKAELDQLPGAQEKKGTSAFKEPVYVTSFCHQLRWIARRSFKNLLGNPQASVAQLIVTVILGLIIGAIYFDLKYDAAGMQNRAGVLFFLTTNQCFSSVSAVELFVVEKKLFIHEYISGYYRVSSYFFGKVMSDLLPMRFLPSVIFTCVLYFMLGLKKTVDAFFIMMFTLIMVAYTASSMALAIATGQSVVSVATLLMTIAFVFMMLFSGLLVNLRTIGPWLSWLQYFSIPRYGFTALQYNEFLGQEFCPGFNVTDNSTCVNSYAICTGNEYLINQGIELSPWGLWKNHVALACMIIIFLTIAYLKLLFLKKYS

[2] = target: T2, Bile salt export pump (Rattus norvegicus, UniProt O70127); experiment: TP_TRANSPORTER: inhibition of taurocholate uptake (taurocholate: 2 uM, beta-sitosterol: 10 uM) in membrane vesicles of Bsep-expressing […] cells; type: functional, cell membranes, Membrane vesicle; conditions: sf9, 10 µM
T2 sequence (O70127 whole entry): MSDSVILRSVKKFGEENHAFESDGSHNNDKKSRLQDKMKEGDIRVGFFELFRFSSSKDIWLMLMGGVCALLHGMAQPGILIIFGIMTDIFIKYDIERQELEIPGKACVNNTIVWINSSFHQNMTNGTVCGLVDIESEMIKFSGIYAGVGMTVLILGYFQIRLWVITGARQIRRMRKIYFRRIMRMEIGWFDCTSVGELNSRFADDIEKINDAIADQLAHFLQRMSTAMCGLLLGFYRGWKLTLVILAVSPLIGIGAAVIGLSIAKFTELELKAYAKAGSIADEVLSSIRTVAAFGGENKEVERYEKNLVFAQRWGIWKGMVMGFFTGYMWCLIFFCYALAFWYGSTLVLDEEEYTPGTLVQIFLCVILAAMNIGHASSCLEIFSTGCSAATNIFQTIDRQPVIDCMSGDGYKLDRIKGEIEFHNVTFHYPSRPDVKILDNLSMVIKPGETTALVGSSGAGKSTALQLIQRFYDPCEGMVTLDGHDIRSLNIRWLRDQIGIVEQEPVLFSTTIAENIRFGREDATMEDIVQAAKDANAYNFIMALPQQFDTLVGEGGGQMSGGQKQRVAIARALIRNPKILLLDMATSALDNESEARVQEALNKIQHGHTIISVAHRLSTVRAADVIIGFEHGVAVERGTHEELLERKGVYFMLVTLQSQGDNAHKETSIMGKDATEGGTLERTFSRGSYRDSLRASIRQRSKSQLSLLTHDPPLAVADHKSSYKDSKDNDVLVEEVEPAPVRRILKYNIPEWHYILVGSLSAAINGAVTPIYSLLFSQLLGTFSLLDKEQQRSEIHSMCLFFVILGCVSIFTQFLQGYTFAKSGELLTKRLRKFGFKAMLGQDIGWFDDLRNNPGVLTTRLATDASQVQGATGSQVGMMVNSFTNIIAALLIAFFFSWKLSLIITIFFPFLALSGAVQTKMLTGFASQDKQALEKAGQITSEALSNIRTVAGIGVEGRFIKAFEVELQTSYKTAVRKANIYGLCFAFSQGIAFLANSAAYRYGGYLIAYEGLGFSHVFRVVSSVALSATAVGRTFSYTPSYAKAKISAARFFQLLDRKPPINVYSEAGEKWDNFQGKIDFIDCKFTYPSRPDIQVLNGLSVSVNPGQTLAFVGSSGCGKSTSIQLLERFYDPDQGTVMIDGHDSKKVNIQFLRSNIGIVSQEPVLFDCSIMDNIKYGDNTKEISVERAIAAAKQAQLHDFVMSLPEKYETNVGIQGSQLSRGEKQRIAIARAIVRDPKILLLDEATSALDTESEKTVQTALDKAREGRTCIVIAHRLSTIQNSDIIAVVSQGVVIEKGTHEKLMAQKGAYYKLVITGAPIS

[3] = target: ATP-dependent translocase ABCB1 (Homo sapiens, UniProt P08183); experiment: TP_TRANSPORTER: Flow cytometry in MDR1-expressing NIH3T3 cells; type: functional, cell-based; conditions: mouse
[4] = target: Multidrug resistance-associated protein 1 (Mus musculus, UniProt O35379); experiment: TP_TRANSPORTER: Flow cytometry in lymphocytes from Mdr1a/b(-/)- mice; type: functional; conditions: lymphocyte
Multidrug resistance-associated protein 1, sequence (O35379 whole entry): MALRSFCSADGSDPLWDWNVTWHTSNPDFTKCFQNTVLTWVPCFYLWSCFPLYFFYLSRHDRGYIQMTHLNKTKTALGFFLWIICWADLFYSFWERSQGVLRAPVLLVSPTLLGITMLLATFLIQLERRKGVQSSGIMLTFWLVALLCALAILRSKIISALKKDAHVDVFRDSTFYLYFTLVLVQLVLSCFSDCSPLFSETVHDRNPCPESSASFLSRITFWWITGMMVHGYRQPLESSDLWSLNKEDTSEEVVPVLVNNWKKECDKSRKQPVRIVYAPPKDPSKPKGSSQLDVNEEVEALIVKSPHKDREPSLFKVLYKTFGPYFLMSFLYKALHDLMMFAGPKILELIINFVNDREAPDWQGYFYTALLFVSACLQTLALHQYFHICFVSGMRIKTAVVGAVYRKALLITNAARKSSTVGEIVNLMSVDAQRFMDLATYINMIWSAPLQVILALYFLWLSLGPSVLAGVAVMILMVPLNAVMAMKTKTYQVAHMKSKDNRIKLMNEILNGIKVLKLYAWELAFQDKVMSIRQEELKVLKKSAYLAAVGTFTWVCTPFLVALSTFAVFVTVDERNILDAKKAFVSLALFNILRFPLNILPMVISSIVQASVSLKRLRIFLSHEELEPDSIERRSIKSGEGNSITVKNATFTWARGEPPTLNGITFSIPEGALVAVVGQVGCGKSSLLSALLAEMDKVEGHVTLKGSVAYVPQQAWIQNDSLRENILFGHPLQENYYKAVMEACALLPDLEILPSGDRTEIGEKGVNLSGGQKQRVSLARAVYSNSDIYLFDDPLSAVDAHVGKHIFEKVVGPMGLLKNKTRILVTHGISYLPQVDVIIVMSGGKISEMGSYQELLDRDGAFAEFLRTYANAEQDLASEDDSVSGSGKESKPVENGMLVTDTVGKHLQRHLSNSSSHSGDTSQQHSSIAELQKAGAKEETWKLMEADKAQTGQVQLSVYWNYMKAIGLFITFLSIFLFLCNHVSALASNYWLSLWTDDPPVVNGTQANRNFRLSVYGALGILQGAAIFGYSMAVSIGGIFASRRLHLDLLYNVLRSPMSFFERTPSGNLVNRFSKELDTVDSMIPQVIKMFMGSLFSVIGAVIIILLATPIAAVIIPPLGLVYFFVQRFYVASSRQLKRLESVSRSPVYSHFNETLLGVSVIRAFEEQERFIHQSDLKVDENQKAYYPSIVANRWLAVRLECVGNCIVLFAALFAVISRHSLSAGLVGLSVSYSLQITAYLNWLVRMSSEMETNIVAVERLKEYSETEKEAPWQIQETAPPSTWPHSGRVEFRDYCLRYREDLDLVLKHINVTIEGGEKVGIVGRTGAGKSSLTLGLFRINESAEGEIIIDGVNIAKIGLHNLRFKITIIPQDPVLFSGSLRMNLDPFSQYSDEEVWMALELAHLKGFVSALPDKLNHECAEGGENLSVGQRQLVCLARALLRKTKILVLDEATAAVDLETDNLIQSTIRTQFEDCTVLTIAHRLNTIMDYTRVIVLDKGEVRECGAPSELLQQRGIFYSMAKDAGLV

ATP-dependent translocase ABCB1, sequence (P08183 whole entry): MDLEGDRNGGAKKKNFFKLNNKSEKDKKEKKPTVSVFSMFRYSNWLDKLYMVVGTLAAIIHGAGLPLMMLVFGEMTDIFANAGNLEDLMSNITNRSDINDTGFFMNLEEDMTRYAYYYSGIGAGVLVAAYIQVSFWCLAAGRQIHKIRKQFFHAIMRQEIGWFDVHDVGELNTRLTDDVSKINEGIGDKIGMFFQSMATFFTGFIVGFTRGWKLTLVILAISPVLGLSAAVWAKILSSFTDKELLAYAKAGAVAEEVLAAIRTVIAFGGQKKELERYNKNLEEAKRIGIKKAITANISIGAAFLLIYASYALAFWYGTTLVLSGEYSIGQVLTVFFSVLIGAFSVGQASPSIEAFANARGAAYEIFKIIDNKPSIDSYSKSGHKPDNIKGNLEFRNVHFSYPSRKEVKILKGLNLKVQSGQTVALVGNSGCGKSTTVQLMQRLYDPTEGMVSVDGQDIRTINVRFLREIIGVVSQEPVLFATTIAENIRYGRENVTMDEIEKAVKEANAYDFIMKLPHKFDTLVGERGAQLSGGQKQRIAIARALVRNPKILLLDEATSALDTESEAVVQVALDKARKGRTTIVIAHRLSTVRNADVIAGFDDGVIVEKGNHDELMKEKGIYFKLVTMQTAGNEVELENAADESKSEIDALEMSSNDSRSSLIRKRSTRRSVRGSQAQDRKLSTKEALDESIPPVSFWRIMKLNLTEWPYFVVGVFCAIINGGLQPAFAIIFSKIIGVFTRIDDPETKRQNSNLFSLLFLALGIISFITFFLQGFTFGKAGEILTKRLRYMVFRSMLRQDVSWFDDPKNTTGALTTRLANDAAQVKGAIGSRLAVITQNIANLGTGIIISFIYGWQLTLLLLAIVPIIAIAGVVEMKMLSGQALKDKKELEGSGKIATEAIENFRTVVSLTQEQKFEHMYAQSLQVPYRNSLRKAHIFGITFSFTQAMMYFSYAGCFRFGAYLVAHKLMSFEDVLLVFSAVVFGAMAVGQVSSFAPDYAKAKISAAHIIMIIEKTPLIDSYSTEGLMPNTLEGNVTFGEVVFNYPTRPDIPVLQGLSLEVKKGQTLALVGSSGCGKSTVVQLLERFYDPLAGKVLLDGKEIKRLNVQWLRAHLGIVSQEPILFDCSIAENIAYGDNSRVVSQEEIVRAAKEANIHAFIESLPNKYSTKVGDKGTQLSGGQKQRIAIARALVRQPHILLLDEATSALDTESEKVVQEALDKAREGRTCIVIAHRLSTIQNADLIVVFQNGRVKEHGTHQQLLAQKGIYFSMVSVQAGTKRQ

With `CC[C@H](CC[C@@H](C)[C@H]1CC[C@H]2[C@@H]3CC=C4C[C@@H](O)CC[C@]4(C)[C@H]3CC[C@]12C)C(C)C` [BETA-SITOSTEROL] the Activity [1] was “is not a substrate [-]”, the Activity [2] was “is not an inhibitor [-]” and the Activity [3] was “is not a substrate [-]”. The Activity [4] was “is not a substrate [-]”.
